Results reported in US6741954B2, “Selection method for odorants” (Symrise GmbH & Co. KG, priority 2000, dated 2004).
Like-named read-outs stand apart in the source and are kept apart here.

Columns and labels:
Type in all cases: physicochemical
[1] = Headspace above the wet washed hair: relative partition parameter headspace/shampoo (SPME-GC)
Protocol: (§1) The procedure is analogous in all examples.
The example reflects the scent impression, which is perceived from freshly washed hair. The shampoo is prepared as is generally customary. The mixture of 39 odorants is incorporated into the above-mentioned shampoo (1st) in an amount of 1%. A hair tress (2.5 g) is washed in 100 ml of a 20% shampoo solution in water by immersing 5-10 times and stirring, and then rinsed in 100 ml of clear water by immersing it three times. The hair tress is carefully patted with thin cellulose. The moist hair tress is transferred to a 100 ml Erlenmeyer flask sealed with a septum and left to stand for 3 h. The headspace above the washed and rinsed hair tress is extracted over 15 min using solid phase microextraction (SPME). The SPME needle is desorbed in a GC injector, and a gas chromatogram is recorded. […] The analytical results are then used mathematically as described above.

[2] = Headspace above the shampoo: relative partition parameter (SPME-GC); settings: log of amount in headspace relative to amount in shampoo; 1% odorant mixture, SPME 15 min
Protocol: as §1
The example reflects the scent impression, which is perceived from a freshly opened bottle of shampoo. The mixture of 39 odorants is incorporated into the above-mentioned shampoo (1) in an amount of 1%. 20 g of the shampoo are transferred to a 100 ml Erlenmeyer flask sealed with a septum. The headspace above the shampoo is extracted using a SPME over 15 min. […] The analytical results are then used mathematically as described above.

[3] = Headspace above the soap bar: relative partition parameter (SPME-GC)
Protocol: as §1
The example reflects the scent impression, which is perceived from a fresh bar of soap. […] 20 g of the grated soap are transferred to a 100 ml Erlenmeyer flask sealed with a septum. The headspace above the shampoo is extracted using a SPME over 15 min. […] The analytical results are then used mathematically as described above.

[4] = Headspace above the washing powder: relative partition parameter (SPME-GC)
Protocol: as §1
The example reflects the scent impression, which is perceived from a freshly opened pack of laundry detergent. The mixture of 39 odorants is incorporated in the above-mentioned washing powder in an amount of 0.5%. 20 g of the washing powder are transferred to a 100 ml Erlenmeyer flask sealed with a septum. The headspace above the shampoo is extracted using a SPME over 15 min. […] The analytical results are then used mathematically as described above.

[5] = Headspace above the candle wax: relative partition parameter (SPME-GC); settings: log of amount in headspace relative to amount in candle wax; 5% odorant mixture, grated nonburning candle, SPME 15 min
Protocol: as §1
The example reflects the scent impression, which is perceived from a nonburning candle. The mixture of 39 odorants is incorporated into a candle in an amount of 5%. 20 g of the grated candle are transferred to a 100 ml Erlenmeyer flask sealed with a septum. The headspace above the candle is extracted using a SPME over 15 min. […] The analytical results are then used mathematically as described above.

[6] = Headspace above the fresh gel room air freshener: relative partition parameter (SPME-GC); settings: log of amount in headspace relative to amount in gel; 5% odorant mixture, 10 liter vessel, 1 h, SPME 15 min
Protocol: as §1
The example reflects the scent impression, which is perceived above a fresh gel room air freshener. The mixture of 39 odorants is incorporated into an air freshener in an amount of 5%. 100 g of the air freshener are placed in its customary presentation form in a large sealed 10 liter vessel. The air freshener is left to stand for one hour. The headspace above the air freshener is extracted using a SPME over 15 min. […] The analytical results are then used mathematically as described above.

[7] = Headspace above the solution of WC scented block cleaner: relative partition parameter (SPME-GC); settings: log of amount in headspace above 1% solution in water relative to amount in WC block; 1% odorant mixture, SPME 15 min
Protocol: as §1
The example reflects the scent impression, which is perceived from a WC scented block cleaner. The mixture of 39 odorants is incorporated into the toilet block in an amount of 1%. A 1% solution of the toilet block in water is prepared. 20 ml of this solution are transferred to a 100 ml Erlenmeyer flask sealed with a septum. The headspace above the shampoo is extracted by means of a SPME over 15 min. […] The analytical results are then used mathematically as described above.

Molecule | Activity (logarithmic partition parameter above wet hair) ([1]; log of amount in headspace above wet washed hair relative to amount in shampoo, 1% odorant mixture, 3 h standing, SPME 15 min) | Activity (logarithmic partition parameter above shampoo) [2] | Activity (logarithmic partition parameter above soap) ([3]; log of amount in headspace relative to amount in soap, 1.2% odorant mixture, grated soap, SPME 15 min) | Activity (logarithmic partition parameter above washing powder) ([4]; log of amount in headspace relative to amount in washing powder, 0.5% odorant mixture, SPME 15 min) | Activity (logarithmic partition parameter above candle wax) [5] | Activity (logarithmic partition parameter above gel room air fresheners) [6] | Activity (logarithmic partition parameter above dissolved WC scented block cleaners) [7] | Activity (logarithmic partition parameter above wet hair) [1] | Activity (logarithmic partition parameter above soap) [3] | Activity (logarithmic partition parameter above washing powder) [4]
CC1=CCC(C(C)C)=CC1 [gamma-Terpinene] | −0.074 | 1.009 | 0.819 | 0.771 | 0.342 | 0.126 | −1.230 |  |  | 
Caryophyllene |  | −0.279 |  |  | −1.062 | −0.011 | −0.390 | −1.080 | −0.150 | −0.385
